From patent publication US9920035B2, “Heterocyclic compounds, medicaments containing said compounds, use thereof and processes for the preparation thereof” (Boehringer Ingelheim International GmbH, priority 2011, dated 2018)

target: T1, epithelial sodium channel (ENaC) (Mus musculus, UniProt Q61180+Q9WU38+Q9WU39); assay: Ussing chamber: inhibition of amiloride sensitive short circuit current (I_sc) in M-1 cells; type: cell-based; settings: Mouse kidney M-1 cells on transwell filters, Ussing chamber at 37° C., compound added to the apical solution
T1 construct: Mouse kidney M-1 cells were cultivated in DMEM containing 5% FCS and 5 μM dexamethasone; endogenous in cells; host or cells: mouse kidney M-1 cells
T1 sequence (Q61180 1-699): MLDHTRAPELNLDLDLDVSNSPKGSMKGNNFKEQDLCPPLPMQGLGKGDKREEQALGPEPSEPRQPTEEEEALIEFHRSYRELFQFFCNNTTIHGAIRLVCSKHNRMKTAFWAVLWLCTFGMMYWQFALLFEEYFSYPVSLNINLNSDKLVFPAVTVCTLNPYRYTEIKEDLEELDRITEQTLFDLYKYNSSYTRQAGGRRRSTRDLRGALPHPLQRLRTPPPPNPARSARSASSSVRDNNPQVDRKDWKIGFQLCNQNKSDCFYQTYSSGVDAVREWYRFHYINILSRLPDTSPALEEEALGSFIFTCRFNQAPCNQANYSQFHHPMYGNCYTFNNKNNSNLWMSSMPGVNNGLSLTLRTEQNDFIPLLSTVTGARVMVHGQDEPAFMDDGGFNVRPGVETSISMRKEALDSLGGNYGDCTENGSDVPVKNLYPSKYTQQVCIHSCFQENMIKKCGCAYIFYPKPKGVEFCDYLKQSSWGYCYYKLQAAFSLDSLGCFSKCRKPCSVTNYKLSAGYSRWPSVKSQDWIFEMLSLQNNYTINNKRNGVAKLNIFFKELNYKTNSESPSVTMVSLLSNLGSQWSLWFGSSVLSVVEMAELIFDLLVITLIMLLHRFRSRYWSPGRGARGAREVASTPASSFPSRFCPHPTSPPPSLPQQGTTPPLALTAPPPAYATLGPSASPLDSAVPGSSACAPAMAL
T1 sequence (Q9WU38 1-638): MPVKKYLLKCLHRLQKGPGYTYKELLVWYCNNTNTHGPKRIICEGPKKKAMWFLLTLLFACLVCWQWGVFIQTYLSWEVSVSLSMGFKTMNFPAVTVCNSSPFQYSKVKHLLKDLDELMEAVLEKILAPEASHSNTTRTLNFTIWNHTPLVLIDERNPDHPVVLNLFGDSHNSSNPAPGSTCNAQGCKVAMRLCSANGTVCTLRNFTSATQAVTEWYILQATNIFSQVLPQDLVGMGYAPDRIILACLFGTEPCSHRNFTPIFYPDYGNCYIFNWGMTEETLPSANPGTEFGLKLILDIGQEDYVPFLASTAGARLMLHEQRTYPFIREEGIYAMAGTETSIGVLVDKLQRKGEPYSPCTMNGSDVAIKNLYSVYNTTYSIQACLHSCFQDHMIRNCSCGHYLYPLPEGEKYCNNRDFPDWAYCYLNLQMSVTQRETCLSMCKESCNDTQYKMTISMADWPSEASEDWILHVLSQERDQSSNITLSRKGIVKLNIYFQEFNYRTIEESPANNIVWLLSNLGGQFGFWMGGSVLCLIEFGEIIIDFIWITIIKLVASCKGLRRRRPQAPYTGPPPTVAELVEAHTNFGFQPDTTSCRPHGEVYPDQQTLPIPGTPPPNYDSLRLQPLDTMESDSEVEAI
T1 sequence (Q9WU39 1-655): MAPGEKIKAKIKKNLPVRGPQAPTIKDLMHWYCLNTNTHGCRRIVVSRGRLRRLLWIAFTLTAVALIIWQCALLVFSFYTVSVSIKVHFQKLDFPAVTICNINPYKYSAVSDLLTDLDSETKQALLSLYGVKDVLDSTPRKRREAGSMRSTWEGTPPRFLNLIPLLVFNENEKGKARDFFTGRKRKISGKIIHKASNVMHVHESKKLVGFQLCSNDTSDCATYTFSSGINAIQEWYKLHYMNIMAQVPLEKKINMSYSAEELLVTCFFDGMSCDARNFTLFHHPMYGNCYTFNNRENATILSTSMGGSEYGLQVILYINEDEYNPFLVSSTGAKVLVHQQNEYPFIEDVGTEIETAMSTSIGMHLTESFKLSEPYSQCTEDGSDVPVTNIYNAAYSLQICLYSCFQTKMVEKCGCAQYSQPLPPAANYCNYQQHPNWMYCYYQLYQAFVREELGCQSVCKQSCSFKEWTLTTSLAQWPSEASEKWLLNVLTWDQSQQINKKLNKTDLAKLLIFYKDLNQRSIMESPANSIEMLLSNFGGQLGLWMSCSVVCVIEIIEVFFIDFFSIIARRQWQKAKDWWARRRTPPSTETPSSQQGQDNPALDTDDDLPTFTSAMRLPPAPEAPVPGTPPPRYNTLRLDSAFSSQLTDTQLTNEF
Description: Mouse kidney M-1 cells were cultivated in DMEM containing 5% FCS and 5 μM dexamethasone for 10 to 12 days on polyester transwell filters. Filters were inserted into a teflon-coated well-plate which fit into the in-house ussing chamber system. Prior to measurement the medium of M-1 cells was replaced with Caco-2 transport buffer (Invitrogen, Germany). During measurements, the Ussing chamber temperature was kept at 37° C. Short circuit currents (I_sc) were measured in the voltage-clamp mode using an in-house built amplifier (Boehringer Ingelheim, Biberach) with the software package Lab View for data acquisition and analysis. The transepithelial electrical resistance (TEER) was determined by the application of voltage steps of ±5 mV every 5 sec. Compounds were administered at a final concentration of 3 μM or at increasing concentrations (1-3-10 μM) to the apical solution. At the end of each experiment the amiloride sensitive I_SC was measured by adding 3 μM amiloride to the apical compartment. Results are expressed as inhibition in percent of the amiloride effect or as IC50. Results are listed in tables 1 to 5 and further examples listed above.

In order of rising IC50:
1. COC(=O)CN1CCC(CCc2ccccc2)(CNC(N)=NC(=O)c2nc(Cl)c(N)nc2N)CC1 [Example 1.16, {4-[N′-(3,5-diamino-6-chloro-pyrazine-2-carbonyl)guanidinomethyl]-4-phenethyl-piperidin-1-yl}-acetic acid methyl ester]  2 nM
2. CC(C)(C)OC(=O)NCCNC(=O)N1CCC(CCc2ccccc2)(CNC(N)=NC(=O)c2nc(Cl)c(N)nc2N)CC1 [Example 1.33]  7 nM
3. CC(C)NC(=O)N1CCC(CCc2ccccc2)(CNC(N)=NC(=O)c2nc(Cl)c(N)nc2N)CC1 [Example 1.2]  8 nM
4. CC(C)(C)OC(=O)NCCCNC(=O)N1CCC(CCc2ccccc2)(CNC(N)=NC(=O)c2nc(Cl)c(N)nc2N)CC1 [Example 1.34]  10 nM
5. COCC(=O)N1CCC(CCc2ccccc2)(CNC(N)=NC(=O)c2nc(Cl)c(N)nc2N)CC1 [Example 1.9]  11 nM
6. CCNC(=O)N1CCC(CCc2ccccc2)(CN/C(N)=N/C(=O)c2nc(Cl)c(N)nc2N)CC1 [Example 1.12]  12 nM
7. CCCC(=O)N1CCC(CCc2ccccc2)(CNC(N)=NC(=O)c2nc(Cl)c(N)nc2N)CC1 [Example 1.13]  13 nM
8. C[N+](C)(C)CCCC(=O)N1CCC(CCc2ccccc2)(CNC(N)=NC(=O)c2nc(Cl)c(N)nc2N)CC1 [Example 1.50]  15 nM
9. CC(C)NC(=O)N1CCC(CNC(N)=NC(=O)c2nc(Cl)c(N)nc2N)(Cc2ccccc2)CC1 [Example 1.8]  17 nM
10. CC(C)CC(=O)N1CCC(CCc2ccccc2)(CNC(N)=NC(=O)c2nc(Cl)c(N)nc2N)CC1 [Example 1.11]  17 nM
11. CC(C)(C)OC(=O)NCC(=O)N1CCC(CCc2ccccc2)(CNC(N)=NC(=O)c2nc(Cl)c(N)nc2N)CC1 [Example 1.25]  18 nM
12. CC(C)(C)OC(=O)NCCCNC(=O)N1CCC(CNC(N)=NC(=O)c2nc(Cl)c(N)nc2N)(Cc2ccccc2)CC1 [Example 1.36]  18 nM
13. CC(C)(C)OC(=O)NCCCCC(=O)N1CCC(CNC(N)=NC(=O)c2nc(Cl)c(N)nc2N)(Cc2ccccc2)CC1 [Example 1.26]  19 nM
14. COC(=O)CCC(=O)N1CCC(CCc2ccccc2)(CNC(N)=NC(=O)c2nc(Cl)c(N)nc2N)CC1 [Example 1.14]  20 nM
15. C[N+](C)(C)CC(=O)N1CCC(CCc2ccccc2)(CNC(N)=NC(=O)c2nc(Cl)c(N)nc2N)CC1 [Example 1.49]  22 nM
16. COC(=O)CCNC(=O)N1CCC(CCc2ccccc2)(CNC(N)=NC(=O)c2nc(Cl)c(N)nc2N)CC1 [Example 1.19]  24 nM
17. CC(C)(C)OC(=O)N1CCC(CNC(N)=NC(=O)c2nc(Cl)c(N)nc2N)(c2ccccc2)CC1 [Example 1.42]  25 nM
18. NC(=O)N1CCC(CCc2ccccc2)(CNC(N)=NC(=O)c2nc(Cl)c(N)nc2N)CC1 [Example 1.4]  27 nM
19. CC(C)(C)OC(=O)NCC(=O)N1CCC(CNC(N)=NC(=O)c2nc(Cl)c(N)nc2N)(Cc2ccccc2)CC1 [Example 1.24]  27 nM
20. COC(=O)CNC(=O)N1CCC(CCc2ccccc2)(CNC(N)=NC(=O)c2nc(Cl)c(N)nc2N)CC1 [Example 1.18]  28 nM
21. COC(=O)CCC(=O)N1CCC(CNC(N)=NC(=O)c2nc(Cl)c(N)nc2N)(c2ccccc2)CC1 [Example 1.47]  29 nM
22. CN1CCC(CCc2ccccc2)(CNC(N)=NC(=O)c2nc(Cl)c(N)nc2N)CC1 [Example 1.3]  33 nM
23. CS(=O)(=O)N1CCC(CCc2ccccc2)(CNC(N)=NC(=O)c2nc(Cl)c(N)nc2N)CC1 [Example 1.1]  34 nM
24. NC(=NC(=O)c1nc(Cl)c(N)nc1N)NCC1(CCc2ccccc2)CCN(C(=O)c2ccccc2)CC1 [Example 1.5]  34 nM
25. CN(C)CCNC(=O)N1CCC(CCc2ccccc2)(CNC(N)=NC(=O)c2nc(Cl)c(N)nc2N)CC1 [Example 1.10]  36 nM
26. CC(C)(C)OC(=O)NCCCN1CCC(CCc2ccccc2)(CNC(N)=NC(=O)c2nc(Cl)c(N)nc2N)CC1 [Example 1.28]  36 nM
27. CC(C)(C)OC(=O)NCCC(=O)N1CCC(CCc2ccccc2)(CNC(N)=NC(=O)c2nc(Cl)c(N)nc2N)CC1 [Example 1.22]  37 nM
28. NC(=NC(=O)c1nc(Cl)c(N)nc1N)NCC1(CCc2ccccc2)CCN(Cc2ccccc2)CC1 [Example 1.6]  40 nM
29. CC(C)NC(=O)N1CCC(CNC(N)=NC(=O)c2nc(Cl)c(N)nc2N)(c2ccccc2)CC1 [Example 1.43]  41 nM
30. CN(C)CCCNC(=O)N1CCC(CNC(N)=NC(=O)c2nc(Cl)c(N)nc2N)(Cc2ccccc2)CC1 [Example 1.38]  42 nM
31. CN(C)CCN1CCC(CCc2ccccc2)(CNC(N)=NC(=O)c2nc(Cl)c(N)nc2N)CC1 [Example 1.32]  46 nM
32. CC(C)NC(=O)N1CCC(CNC(N)=NC(=O)c2nc(Cl)c(N)nc2N)(c2ccc3c(c2)OCO3)CC1 [Example 1.44]  46 nM
33. COC(=O)c1ccc(CCC2(CNC(N)=NC(=O)c3nc(Cl)c(N)nc3N)CCN(C(=O)OC(C)(C)C)CC2)cc1 [Example 1.17]  56 nM
34. CC(C)N1CCC(CCc2ccccc2)(CNC(N)=NC(=O)c2nc(Cl)c(N)nc2N)CC1 [Example 1.7]  63 nM
35. CC(C)(C)OC(=O)NCCCN1CCC(CNC(N)=NC(=O)c2nc(Cl)c(N)nc2N)(Cc2ccccc2)CC1 [Example 1.37]  64 nM
36. COc1ccccc1C1(CNC(N)=NC(=O)c2nc(Cl)c(N)nc2N)CCN(C(=O)OC(C)(C)C)CC1 [Example 1.45]  66 nM
37. COC(=O)CN1CCC(CNC(N)=NC(=O)c2nc(Cl)c(N)nc2N)(Cc2ccccc2)CC1 [Example 1.30]  70 nM
38. COC(=O)CCC(=O)N1CCC(CNC(N)=NC(=O)c2nc(Cl)c(N)nc2N)(Cc2ccccc2)CC1 [Example 1.20]  75 nM
39. CN(C)CCCN1CCC(CCc2ccccc2)(CNC(N)=NC(=O)c2nc(Cl)c(N)nc2N)CC1 [Example 1.29]  86 nM
40. C[N+]1(C)CCC(CCc2ccccc2)(CNC(N)=NC(=O)c2nc(Cl)c(N)nc2N)CC1 [Example 1.15]  91 nM
41. CN(C)CCN1CCC(CNC(N)=NC(=O)c2nc(Cl)c(N)nc2N)(Cc2ccccc2)CC1 [Example 1.41]  91 nM
42. CN(C)CC(=O)N1CCC(CCc2ccccc2)(CNC(=N)NC(=O)c2nc(Cl)c(N)nc2N)CC1 [Example 1.48]  130 nM
43. CN(C)CCCN1CCC(CNC(N)=NC(=O)c2nc(Cl)c(N)nc2N)(Cc2ccccc2)CC1 [Example 1.31]  287 nM
